Legend:
[1] = Evaluation of solubility of colorant compounds to cyclohexanone; format: physicochemical; conditions: rank A/B/C
[2] = Evaluation of spectral characteristics (UV visible absorption spectrum in cyclohexanone); format: physicochemical; conditions: for absorbance ratio: absorbance at largest absorption wavelength (500 to 650 nm) / absorbance at smallest absorption wavelength (400 to 500 nm), in cyclohexanone, room temperature; for λmax [nm]: absorption peak wavelength, dissolved in cyclohexanone, absorbance regulated to 2.0, room temperature
Description: The colorant compounds represented by the formula (10) was dissolved in cyclohexanone and regulated so as to show an absorbance of 2.0. […] The absorption peak wavelength (λmax [nm]) was determined from the spectrum obtained by the observation. The spectral characteristics of the colorant compound were evaluated by the absorbance ratio of the largest absorption wavelength of the spectrum in the range of 500 to 650 nm to the smallest absorption wavelength of the spectrum in the range of 400 to 500 nm (the absorbance at the largest absorption wavelength/the absorbance at the smallest absorption wavelength).
While the lightness can be evaluated by means of the Y value of the XYZ standard […] system established by CIE (Commission Internationale de l'Eclairage), the lightness was evaluated by means of the absorbance ratio in this example because the Y value can vary remarkably when the hue is shifted slightly.

| Structure (SMILES) | solubility [1] | absorbance ratio [2] | λmax [nm] [2] [nm] |
| --- | --- | --- | --- |
| CCCCC(CC)CN(CC(CC)CCCC)S(=O)(=O)c1cccc(CN(CC)c2ccc(C(=C3C=CC(=[N+](CC)Cc4cccc(S(=O)(=O)N(CC(CC)CCCC)CC(CC)CCCC)c4)C=C3)c3ccccc3S(=O)(=O)[O-])cc2)c1 (centres unmarked) [compound (10)] | A (The solubility to cyclohexanone is not lower than 10%.) | 433 | 619 |
| CCCCNc1ccc(NCCCC)c2c1C(=O)c1ccccc1C2=O [compound (28), C. I. Solvent Blue 35, reference compound] | – | 77 | 620 |

From patent US7834213B2, “Colorant compound and method of manufacturing the same as well as blue resist composition for use in color filter containing the same” (Canon Kabushiki Kaisha, priority 2005, dated 2010)
